Reference: patent US11427548B2 (Arvinas Operations, Inc., priority 2015, dated 2022)
Where two headings read alike, the source gives them in different places.

Molecular target: T1, Androgen Receptor (Homo sapiens, UniProt P10275)
T1 construct: endogenous in cells; host or cells: VCaP cells
T1 sequence (P10275 1-920): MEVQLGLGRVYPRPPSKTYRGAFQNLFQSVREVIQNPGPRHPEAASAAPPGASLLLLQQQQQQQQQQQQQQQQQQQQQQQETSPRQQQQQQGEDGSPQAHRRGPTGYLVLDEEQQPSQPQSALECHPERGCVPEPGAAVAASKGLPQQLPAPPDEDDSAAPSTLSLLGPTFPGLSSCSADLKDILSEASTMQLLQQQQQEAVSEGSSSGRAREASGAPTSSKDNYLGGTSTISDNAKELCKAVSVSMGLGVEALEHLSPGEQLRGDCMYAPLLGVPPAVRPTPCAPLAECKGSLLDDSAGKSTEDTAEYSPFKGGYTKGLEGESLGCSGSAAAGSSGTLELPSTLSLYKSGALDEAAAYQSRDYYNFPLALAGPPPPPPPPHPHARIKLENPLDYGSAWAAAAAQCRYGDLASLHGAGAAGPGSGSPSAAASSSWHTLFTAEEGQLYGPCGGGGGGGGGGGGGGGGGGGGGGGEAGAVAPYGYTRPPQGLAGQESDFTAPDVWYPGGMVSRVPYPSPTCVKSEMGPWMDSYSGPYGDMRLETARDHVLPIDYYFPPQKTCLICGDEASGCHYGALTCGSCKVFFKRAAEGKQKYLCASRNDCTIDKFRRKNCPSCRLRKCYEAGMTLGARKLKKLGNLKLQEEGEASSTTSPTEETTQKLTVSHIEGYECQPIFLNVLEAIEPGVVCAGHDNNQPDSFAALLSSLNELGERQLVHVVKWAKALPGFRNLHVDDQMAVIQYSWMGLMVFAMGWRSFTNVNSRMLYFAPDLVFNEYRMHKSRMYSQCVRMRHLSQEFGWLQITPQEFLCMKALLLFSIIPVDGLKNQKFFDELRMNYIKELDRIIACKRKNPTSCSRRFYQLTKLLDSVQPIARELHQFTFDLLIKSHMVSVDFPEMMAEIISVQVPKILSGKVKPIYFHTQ
Assay: Androgen Receptor ELISA assay (PathScan AR ELISA) in VCaP cells: AR degradation, Dmax and DC50
Type: cell-based
Method in brief: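 VCaP cells, 30,000/well, grown ≥3 days in phenol red-free RPMI with 5% charcoal-stripped FBS; compound added in 0.1% DMSO with 0.1 nM R1881, 7 half-log doses, 24 h. Lysate AR quantified by PathScan sandwich ELISA, HRP/TMB read at 450 nm, giving DC50 and Dmax.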

[1] = VCaP cells; Table 36; read-out: VCaP DC50
[2] = VCaP, VCaP cells; Table 36; read-out: VCaP Dmax (%)
[3] = read-out: VCaP DC50; VCaP cells; Table 36

Question: What does the source list for `CC(NC(=O)C1CC(O)CN1C(=O)C(NC(=O)COCCN1CC2CC1CN2c1ccc(C(=O)NC2C(C)(C)C(Oc3ccc(C#N)c(Cl)c3)C2(C)C)cn1)C(C)(C)C)c1ccc(-c2scnc2CO)cc1` [Example 668, N-((1r,3R)-3-(3-chloro-4-cyanophenoxy)-2,2,4,4-tetramethylcyclobutyl)-6-((1R,4R)-5-(2-(2-(((S)-1-((2S,4R)-4-hydroxy-2-(((S)-1-(4-(4-(hydroxymethyl)thiazol-5-yl)phenyl)ethyl)carbam-oyl)pyrrolidin-1-yl)-3,3-dimethyl-1-oxobutan-2-yl)amino)-2-oxoethoxy)ethyl)-2,5-diazabicyclo[2.2.1]hept-an-2-yl)nicotinamide]?
Answer: DC50 [1]: 51 to 500 nM; Dmax (VCaP, read-out: VCaP Dmax (%), VCaP cells; Table 36): 26 to 50%

Question: What does the source list for `Cc1ncsc1-c1ccc(CNC(=O)[C@@H]2C[C@@H](O)CN2C(=O)[C@@H](NC(=O)COCCN2C[C@H]3C[C@@H]2CN3c2ccc(C(=O)N[C@H]3C(C)(C)[C@H](Oc4ccc(C#N)c(Cl)c4)C3(C)C)cn2)C(C)(C)C)cc1` [Example 669, N-((1r,3R)-3-(3-chloro-4-cyanophenoxy)-2,2,4,4-tetramethylcyclobutyl)-6-((1R,4R)-5-(2-(2-(((S)-1-((2S,4R)-4-hydroxy-2-((4-(4-methylthiazol-5-yl)benzyl)carbamoyl)pyrrolidin-1-yl)-3,3-dimethyl-1-oxobutan-2-yl)amino)-2-oxoethoxy)ethyl)-2,5-diazabicyclo[2.2.1]hept-an-2-yl)nicotinamide]?
Answer: DC50 [1]: < 50 nM; Dmax [2]: 51 to 70%

Question: Which DC50 [1] does the source give for `Cc1ncsc1-c1ccc([C@H](C)NC(=O)[C@@H]2C[C@@H](O)CN2C(=O)[C@@H](NC(=O)COCCCCCNc2ccc(C(=O)N[C@H]3C(C)(C)[C@H](Oc4ccc(C#N)c(Cl)c4)C3(C)C)nc2)C(C)C)cc1` [Example 670, N-((1r,3r)-3-(3-chloro-4-cyanophenoxy)-2,2,4,4-tetramethylcyclobutyl)-5-((5-(2-(((S)-1-((2S,4R)-4-hydroxy-2-(((S)-1-(4-(4-methylthiaozl-5-yl)phenyl)ethyl)carbam-oyl)pyrrolidin-1-yl)-3-methyl-1-oxobutan-2-yl)amino)-2-oxoethoxy)pentyl)amino) picolinamide] here?
Answer: > 501 nM

Question: What about the Dmax [2] of the same compound?
Answer: < 25%

Question: Which results are given for `Cc1ncsc1-c1ccc(C(CO)NC(=O)C2C[C@@H](O)CN2C(=O)[C@@H](NC(=O)COCCN2CCN(c3ccc(C(=O)N[C@H]4C(C)(C)[C@H](Oc5ccc(C#N)c(Cl)c5)C4(C)C)cn3)CC2)C(C)(C)C)cc1` (stereo partly drawn) [Example 671, N-((1r,3r)-3-(3-chloro-4-cyanophenoxy)-2,2,4,4-tetramethylcyclobutyl)-6-(4-(2-(2-(((S)-1-((2S,4R)-4-hydroxy-2-((2-hydroxy-1-(4-(4-methylthiazol-5-yl)phenyl)ethyl)carbam-oyl)pyrrolidin-1-yl)-3,3-dimethyl-1-oxobutan-2-yl)amino)-2-oxoethoxy)ethyl)pipera-zin-1-yl)nicotinamide]?
Answer: DC50 [1]: < 50 nM; Dmax [2]: > 71%

Question: Which results are given for `Cc1ncsc1-c1ccc(CNC(=O)[C@@H]2C[C@@H](O)CN2C(=O)[C@@H](NC(=O)CN2CCC3(CC2)CCN(c2ccc(C(=O)N[C@H]4C(C)(C)[C@H](Oc5ccc(C#N)c(Cl)c5)C4(C)C)cn2)CC3)C(C)(C)C)cc1` [Example 672, N-((1r,3r)-3-(3-chloro-4-cyanophenoxy)-2,2,4,4-tetramethylcyclobutyl)-6-(9-(2-(((S)-1-((2S,4R)-4-hydroxy-2-((4-(4-methylthiazol-5-yl)benzyl)carbamoyl)pyr-rolidin-1-yl)-3,3-dimethyl-1-oxobutan-2-yl)amino)-2-oxoethyl)-3,9-diazaspiro[5.5]undecan-3-yl)nicotinamide]?
Answer: DC50 [1]: < 50 nM; Dmax [2]: 51 to 70%

Question: With `C[C@H](NC(=O)[C@@H]1C[C@@H](O)CN1C(=O)[C@@H](NC(=O)COCCN1CCN(c2ccc(C(=O)N[C@H]3C(C)(C)[C@H](Oc4ccc(C#N)c(Cl)c4)C3(C)C)cn2)CC1)C(C)(C)C)c1ccc(-c2scnc2CO)cc1` [Example 673, N-((1r,3r)-3-(3-chloro-4-cyanophenoxy)-2,2,4,4-tetramethylcyclobutyl)-6-(4-(2-(2-(((S)-1-((2S,4R)-4-hydroxy-2-(((S)-1-(4-(4-(hydroxymethyl)thiazol-5-yl)phenyl)ethyl)carbam-oyl)pyrrolidin-1-yl)-3,3-dimethyl-1-oxobutan-2-yl)amino)-2-oxoethoxy)ethyl)pipera-zin-1-yl)nicotinamide] as the compound, how does the DC50 [1] read?
Answer: < 50 nM

Question: What about the Dmax [2] of the same compound?
Answer: > 71%

Question: What does the source list for `Cc1ncsc1-c1ccc([C@H](C)NC(=O)C2C[C@@H](O)CN2C(=O)[C@@H](NC(=O)CN2CCN(CCC3(c4ccc(C(=O)N[C@H]5C(C)(C)[C@H](Oc6ccc(C#N)c(C(F)(F)F)c6)C5(C)C)cc4)COC3)CC2)C(C)(C)C)cc1` (stereo partly drawn) [Example 674, (2S,4R)-1-((S)-2-(2-(4-(2-(3-(4-(((1r,3r)-3-(4-cyano-3-(trifluoromethyl)phenoxy)-2,2,4,4-tetramethylcyclobutyl)carbamoyl)phenyl)oxetan-3-yl)ethyl)piperazin-1-yl)acetamido)-3,3-dimethylbutanoyl)-4-hydroxy-N-((S)-1-(4-(4-methylthiazol-5-yl)phenyl)ethyl)pyrrolidine-2-carboxamide]?
Answer: DC50 [1]: < 50 nM; Dmax (VCaP, read-out: VCaP Dmax (%)): 51 to 70%

Question: Which DC50 [3] does the source give for `Cc1ncsc1-c1ccc([C@H](C)NC(=O)[C@@H]2C[C@@H](O)CN2C(=O)[C@@H](NC(=O)CN2CCO[C@H](CN3CCO[C@H](COc4ccc(N5C(=S)N(c6ccc(C#N)c(C(F)(F)F)c6)C(=O)C5(C)C)cc4)C3)C2)C(C)(C)C)cc1` [Example 675, (2S,4R)-1-((S)-2-(2-((R)-2-(((S)-2-((4-(3-(4-cyano-3-(trifluoromethyl)phenyl)-5,5-dimethyl-4-oxo-2-thioxoimidazolidin-1-yl)phenoxy)methyl)mor-pholino)methyl)mor-pholino)acetamido)-3,3-dimethylbutanoyl)-4-hydroxy-N-((S)-1-(4-(4-methylthiazol-5-yl)phenyl)ethyl)pyrrolidine-2-carboxamide] here?
Answer: > 501 nM

Question: For `Cc1ncsc1-c1ccc([C@H](C)NC(=O)[C@@H]2C[C@@H](O)CN2C(=O)[C@@H](NC(=O)CN2CCO[C@@H](CN3CCO[C@H](COc4ccc(N5C(=O)N(c6ccc(C#N)c(C(F)(F)F)c6)C(=O)C5(C)C)cc4)C3)C2)C(C)(C)C)cc1` [Example 676, (2S,4R)-1-((S)-2-(2-((S)-2-(((S)-2-((4-(3-(4-cyano-3-(trifluoromethyl)phenyl)-5,5-dimethyl-4-oxo-2-thioxoimidazolidin-1-yl)phenoxy)methyl)mor-pholino)methyl)mor-phpolino)acetamido)-3,3-dimethylbutanoyl)-4-hydroxy-N-((S)-1-(4-(4-methylthiazol-5-yl)phenyl)ethyl)pyrrolidine-2-carboxamide], which DC50 [3] is on record?
Answer: > 501 nM

Question: How did the DC50 [3] turn out when `Cc1ncsc1-c1ccc([C@H](C)NC(=O)[C@@H]2C[C@@H](O)CN2C(=O)[C@@H](NC(=O)OCc2ccccc2)[C@@H](C)OCCCCCCOc2ccc(N3C(=O)N(c4ccc(C#N)c(C(F)(F)F)c4)C(=O)C3(C)C)cc2)cc1` [Example 677, benzyl ((2S,3R)-3-((6-(4-(3-(4-cyano-3-(trifluoromethyl)phenyl)-5,5-dimethyl-4-oxo-2-thioxoimidazolidin-1-yl)phenoxy)hexyl)oxy)-1-((2S,4R)-4-hydroxy-2-(((S)-1-(4-(4-methylthiazol-5-yl)phenyl)ethyl)carbam-oyl)pyrrolidin-1-y)-1-oxobutan-2-yl)carbamate] was run?
Answer: > 501 nM

Question: With `Cc1ncsc1-c1ccc([C@H](C)NC(=O)[C@@H]2C[C@@H](O)CN2C(=O)[C@@H](NC(=O)COCCN(C)CCCc2ccc(C(=O)N[C@H]3C(C)(C)[C@H](Oc4ccc(C#N)c(Cl)c4)C3(C)C)nc2)C(C)(C)C)cc1` [Example 678, N-((1r,3r)-3-(3-chloro-4-cyanophenoxy)-2,2,4,4-tetramethylcyclobutyl)-5-(3-((2-(2-(((S)-1-((2S,4R)-4-hydroxy-2-(((S)-1-(4-(4-methylthiazol-5-yl)phenyl)ethyl)carbam-oyl)pyrrolidin-1-yl)-3,3-dimethyl-1-oxobutan-2-yl)amino)-2-oxoethoxy)ethyl)(meth-yl)amino)propyl)picolin-amide] as the compound, how does the DC50 [1] read?
Answer: > 501 nM
